Results on four molecules are retold here after patent US12661362B2, “Methods for the prevention and treatment of hearing loss” (Ting Therapeutics LLC, priority 2020, dated 2026).

Data set [1] deals with FVB/NJ mice. Put plainly: Safety monitoring of drugs IP in FVB/NJ mice, with or without Cisplatin. The note with it: for weight loss, pain and distress: Niclosamide 10, Ingenol 0.3, Elesclomol 5 mg/kg/day IP, 4 consecutive days. In kind it is in vivo, mouse. As for the experimental part: To investigate the drugs' effects on mammalian auditory function in vivo, we first treated 5-7 weeks old FVB/NJ mice with […] drug candidates: Niclosamide (10 mg/kg/day), Ingenol (0.3 mg/kg/day), Elesclomol (5 mg/kg/day), for 4 consecutive days (IP) to monitor safety of the drugs. All tested doses were determined based on previous published data showing maximum non-toxic dose through intraperitoneal (IP) injection.
Baseline auditory brainstem response (ABR) were measured on 16 mice divided in 3 groups receiving Ingenol, Elesclomol, and Niclosamide. The mice received the drug doses described above, then on day 2 of drug injection mice also received 30 mg/kg Cisplatin (IP; 4 mice per group).

For data set [2] the following is noted: chemotherapy; cited from earlier work.
Data set [3] concerns HEI-OC1 cells. Put plainly: Caspase-Glo 3/7 assay in HEI-OC1 cells treated with Cisplatin. In kind it is cell-based, mouse. The note with it: Cisplatin 50 μM; for caspase activity: at a dosage of ~40 μM. As for the experimental part:
Now referring to FIG. 3A, and FIGS. 3D-3E, compounds protect from cisplatin toxicity in the mouse inner ear cell line. House Ear Institute-Organ of Corti 1 (HEI-OC1) cells (House Research Institute) were maintained in high-glucose Dulbecco's modified Eagle medium supplemented with 10% fetal bovine serum (Life Technologies, USA) at 33° C. and 10% CO2 as previously described (Kalinec et al., 2003). Cells were seeded at 8,000 cells/well in 96 well plates and left to attach overnight. Now referring to FIG. 3A, For the drug screening, HEI-OC1 cells were pretreated with 30 drug candidates at concentrations ranging from 2 nM to 40 μM one hour before receiving cisplatin. The cisplatin dose (50 μM) was based on our previously published dose response curve. The cells were co-incubated with cisplatin and drug candidates for an additional 19 hours prior to Caspase-Glo 3/7 assay (Promega, Madison, WI) as previously shown. Additionally, […] kenpaullone-treated cells were used as positive controls to validate our results. The DMSO concentration in drug preparation was adjusted to 0.1% v/v and it was verified that 0.5% DMSO had no effect on the cell death kinetics (Hall et al., 2014). Results of the assay were run in triplicate and normalized to cisplatin-only and media-only controls. The percent caspase activity was used to determine the relative protective effect of each compound. The luminescence detection representing caspase activity in each well was obtained using a Cytation Hybrid Multi-Mode Reader (Biotek, Winooski, VT, USA). The percent protection of the cells was calculated using caspase 3/7 readouts and the following formula: […]
In the following examples, Niclosamide, 5-chloro-N-(2-chloro-4-nitrophenyl)-2-hydroxy-benzamide, with a ≥95% purity was used for all experiments (Cayman Chemical, USA).

The test system of data set [4] is zebrafish neuromast HCs. Put plainly: Niclosamide/ezetimibe combination hair cell protection in Cisplatin-treated zebrafish (Loewe synergy). In kind it is in vivo. The note with it: 1.48 μM, cisplatin 300 μM. As for the experimental part: Now referring to FIGS. 6A-6B, 5 dpf zebrafish were either incubated with vehicle (DMSO), cisplatin alone at 300 μM concentration, cisplatin and ezetimibe (0.002 μM to 13.3 μM), cisplatin and niclosamide (0.02 nM to 18.3 nM), or cisplatin and combination ezetimibe/niclosamide. After 6 hours, animals were transferred to fresh water for 1 hour and then sacrificed and processed for immunohistochemistry and HC count as described above. To further elucidate whether Niclosamide, synergizes with Nrf2 activators to protect zebrafish HCs from Cisplatin damage, we tested the extent of HC damage in presence of Niclosamide and a Nrf2 activator, ezetimibe.
A three-dimensional contour plot (A) showing dose response of neuromast hair cell protection in zebrafish treated with varying concentrations of niclosamide and ezetimibe mapped to synergy distribution. […] Other dose combinations showing synergy are shown in dark blue boxes. Dose combinations with scores of 0 and 1 show additive effect. *P<5×10−2; **P<10−3, ***P<10−4 versus control fish, One-sample t-test run by the Combenefit software44. Data is shown as mean±standard deviation.
Zebrafish were treated with combinations of Niclosamide (ranging from 0.02-18.3 nM) and EZ (ranging from 0.0183-13.3 μM).

In data set [5] the test system is zebrafish neuromast HCs. Put plainly: Zebrafish lateral-line neuromast hair cell protection against Cisplatin. In kind it is in vivo, Danio rerio. The note with it: doses of 0.002, 0.0183, 0.165 and 1.48 μM; Cisplatin 4 hours. As for the experimental part: Danio rerio experimental larvae were obtained by pair mating of adult fish maintained at Creighton University by standard methods approved by the Institutional Animal Care and Use Committee. […] We used Tg(pou4f3:mGFP) expressing a membrane bound GFP in HCs. Experimental fish were maintained at 28.5° C. in E3 media (5 mM NaCl, 0.17 mM KCl, 0.33 mM CaCl2) and […], pH 7.2). Animals were cryoanaesthetized after drug treatment and prior to fixation. The neuromasts inspected, S03 and 01-2, were part of the cranial system and included the otic, middle, and opercular neuromasts.
Subsequently, animals were transferred to E3 water for 5 hours and fixed in 4% paraformaldehyde (PFA) overnight (26). Neuromast HCs were immunolabeled with anti-otoferlin (HCS-1, DSHB) and anti-GFP (NB100-1614, Novus Biologicals). These two markers were used to detect and count neuromast HCs to reduce the chances of missing some of the HCs after the treatment since we previously noticed that incubation with the compounds can affect GFP expression more difficult to detect under a fluorescence microscope. Otic, middle, and opercular neuromasts were identified, and HCs at S03 (supraorbital line neuromast) and 01-2 (Otic line neuromasts) were manually counted using a Zeiss AxioSkop 2 fluorescence microscope with a 40× oil objective. Compounds were then evaluated on efficiency and potency, with the top-rated compounds showing high protection at lower concentrations.

On to `N.N.[Cl][Pt][Cl]` [Cisplatin], for which the weight loss in data set [1] (Cisplatin alone, 30 mg/kg IP) was 10-15%. Besides, the “treated cancer patients with permanent hearing loss” value in data set [2] is 40-60%.
As to `CN(NC(=O)CC(=O)NN(C)C(=S)c1ccccc1)C(=S)c1ccccc1` [Elesclomol], in data set [1], the “weight loss, pain and distress” value is “None of the mice showed reduced weight loss or signs of pain and distress”. This molecule also came in with a caspase activity in data set [3] of 20%. The “caspase-3/7 activity relative to control cells” value in data set [3] (dose of 40 μM) was “reduce caspase activity to comparable levels as control cells”.
Consider `O=C1[C@H](CC[C@H](O)c2ccc(F)cc2)[C@@H](c2ccc(O)cc2)N1c1ccc(F)cc1` [Ezetimibe], for which, in data set [4], the “HC per neuromast counts, compound alone” value was “higher HC per neuromast counts”.
For the molecule `CC1=C[C@]23C(=O)[C@@H](C=C(CO)[C@@H](O)[C@]2(O)[C@H]1O)[C@H]1[C@@H](C[C@H]3C)C1(C)C` [Ingenol], in data set [5], the “protection against CIHL in zebrafish” value is “showed protection against CIHL”. The “weight loss, pain and distress” value in data set [1] was “None of the mice showed reduced weight loss or signs of pain and distress”. For the same molecule, the IC50 in data set [3] (Mus musculus, HEI-OC1, HEI-OC1 cells, read-out: calculated IC50 (percent protection from caspase 3/7 readout)) is 1540 nM. The molecule further returned a caspase activity in data set [3] of 30%.
